Test [1] has as its system HepG2. Nature of the test: Antiproliferative activity against human HepG2 cells assessed as inhibition of cell growth incubated for 72 hrs by MTT assay. The format is functional, cell-based. The conditions noted are these: HepG2, 72 h.
The test system of another test is SK-HEP1. Nature of the test: Antiproliferative activity against human SK-HEP1 cells assessed as inhibition of cell growth incubated for 72 hrs by MTT assay. The conditions noted are these: SK-HEP1, 72 h. The class given is functional, cell-based. In general terms: Tetrazolium dyes change colour on reduction, which living cells bring about.
The next test relates to Huh-7. Nature of the test: Antiproliferative activity against human Huh-7 cells assessed as inhibition of cell growth incubated for 72 hrs by MTT assay. The format is functional, cell-based. The conditions noted are these: Huh-7, 72 h.
In a further test the test system is Hep 3B2. Nature of the test: Antiproliferative activity against human Hep3B cells assessed as inhibition of cell growth incubated for 72 hrs by MTT assay. The class given is functional, cell-based.
In test [2] the test system is HepG2. In words: Antiproliferative activity against cisplatin-resistant human HepG2 cells assessed as inhibition of cell growth incubated for 72 hrs by MTT assay. The format is functional, cell-based. The conditions noted are these: HepG2, 72 h.
Test [3] is described as follows: Antiproliferative activity against human LX2 cells assessed as inhibition of cell growth incubated for 72 hrs by MTT assay. The conditions noted are these: LX-2, 72 h. The class given is functional, cell-based.
For another test, the system named is H22. In words: Antitumor activity against […] xenografted in ICR mouse assessed as inhibition of tumor growth at 20 mg/kg, iv administered for 21 days and measured every 2 days relative to control. Conditions: H22, 504 h, time 21 day, read-out: TGI. The format is functional.
Test [4] relates to Quadruplex DNA. In words: Binding affinity to c-MYC G4-quadruplex DNA (unknown origin) using fluorescent tagged FPu18T model assessed as stabilization by measuring change in melting temperature at 2 uM by fluorescence based analysis. The format is nucleic-acid assay.
Another test deals with DNA. Nature of the test: Binding affinity to duplex DNA (unknown origin) using fluorescent tagged F10T model assessed as stabilization by measuring change in melting temperature at 2 uM by fluorescence based analysis. The class given is nucleic-acid assay.
For test [5], the system named is Quadruplex DNA. Nature of the test: Binding affinity to c-MYC G4-quadruplex DNA (unknown origin) using fluorescent tagged FPu18T model assessed as stabilization by measuring change in melting temperature at 2 uM incubated in presence of non-fluorescent ds26 DNA by fluorescence based analysis. The class given is nucleic-acid assay.

What is called IC50 is the concentration that inhibits the measured activity by half. Regarding `CCCCCCc1c2[n+](cc3c(NCCO)c(OC)ccc13)CCc1cc3c(cc1-2)OCO3`, the IC50 in the test on HepG2 [1] worked out at 4.52 µM.

On to `CCCCCCCCCCCCc1c2[n+](cc3c(NCCO)c(OC)ccc13)CCc1cc3c(cc1-2)OCO3`, for which the IC50 with HepG2 [1] turned out to be 2.31 µM.

Turning to `CCCCCCCCc1c2[n+](cc3c(NCCO)c(OC)ccc13)CCc1cc3c(cc1-2)OCO3`, the IC50 in the test on HepG2 [1] is 2.76 µM.

Broadly, the ΔTm is the change in melting temperature against a reference sample. On to `COc1ccc2cc3[n+](cc2c1OC)CCc1cc2c(cc1-3)OCO2` [BERBERINE], for which the IC50 (with HepG2 [1]; in the test with SK-HEP1; in the test with Huh-7; in the test with Hep 3B2; in the test on HepG2 [2]; in test [3]) was greater than 50 µM throughout. In addition, the inhibition in vivo at 20 mg/kg in the test on H22 amounted to 42.3%. The ΔTm came out at 1.6 °C in the test with Quadruplex DNA [4] and 2.1 °C in the test with DNA.

On to `CCCCCCCCc1c2[n+](cc3c(NCCCN4CCOCC4)c(OC)ccc13)CCc1cc3c(cc1-2)OCO3`, for which the IC50 in the test with HepG2 [1] came to 1.12 µM. The ΔTm in the test with Quadruplex DNA [4] turned out to be 18.5 °C; in the test with DNA, 0.6 °C; in the test with Quadruplex DNA [5] it was 17.4 °C.

As to `CCCCCCCCc1c2[n+](c3c4c(c(OC)ccc14)N(CCN(C)C)C=C3)CCc1cc3c(cc1-2)OCO3`, the IC50 with HepG2 [1] turned out to be 1.01 µM. For the same molecule, the ΔTm in the test on Quadruplex DNA [4] was found to be 21.8 °C; in the test with DNA it was 0.4 °C; with Quadruplex DNA [5], 21.1 °C.

As to `CCCCCCCCCCc1c2[n+](cc3c(NCCO)c(OC)ccc13)CCc1cc3c(cc1-2)OCO3`, the IC50 in the test on HepG2 [1] came to 2.03 µM.

For `CCCCCCCCc1c2[n+](cc3c(NCCCCN)c(OC)ccc13)CCc1cc3c(cc1-2)OCO3`, in the test on HepG2 [1], the IC50 was found to be 5.17 µM.

Turning to `CCCCCCCCc1c2[n+](c3c4c(c(OC)ccc14)N(CCO)C=C3)CCc1cc3c(cc1-2)OCO3`, the IC50 in the test with HepG2 [1] was determined as 2.28 µM.

These data come from ChEMBL document CHEMBL5241127, “Design, synthesis and biological evaluation of novel 9-N-substituted-13-alkylberberine derivatives from Chinese medicine as anti-hepatocellular carcinoma agents” (Bioorg Med Chem, 2023).
